Experimental findings from US20250288575A1, “EYE DROP COMPOSITION FOR PREVENTION OR TREATMENT OF OPHTHALMIC DISEASES AND PREPARATION METHOD THEREFOR” (OCUMENSION THERAPEUTICS (SUZHOU) CO., LTD., priority 2021, published 2025) are described below.

A short description of this experiment: Antimicrobial efficacy testing (AET) of atropine sulfate eye drops (0.01%) with different BAK concentrations. The method, then: The concentration of benzalkonium chloride (BAK) in atropine sulfate eye drops was verified via antimicrobial efficacy testing (AET). The lyophilized preparation was reconstituted with 8 mL of reconstituted diluent including BAK at concentrations of 100 ppm, 80 ppm, 50 ppm, 25 ppm, or 0 ppm to obtain atropine sulfate eye drops (0.01%) including benzalkonium chloride at different concentrations.

[1] abbreviates: BAK 0 ppm in atropine sulfate eye drops (0.01%).
[2] abbreviates: BAK 25 ppm in atropine sulfate eye drops (0.01%).
Where [3] appears, read: BAK 50 ppm in atropine sulfate eye drops (0.01%).
[4] abbreviates: BAK 80 ppm in atropine sulfate eye drops (0.01%).
Where [5] appears, read: BAK 100 ppm in atropine sulfate eye drops (0.01%).

For benzalkonium chloride [BAK], the “AET, Chinese Pharmacopoeia Method, Criteria A&B” value by setting is: under setting [1], “Fail”; under setting [2], “Pass”; under setting [3], “Pass”; under setting [4], “Pass”; under setting [5], “Pass”. Besides, the “AET, European Pharmacopoeia Method, Criteria A&B” value by setting is: under setting [1], “Fail”; under setting [2], “Pass”; under setting [3], “Pass”; under setting [4], “Pass”; under setting [5], “Pass”. The “AET, United States Pharmacopeia Method” value under setting [1] was “Fail”; the “AET, United States Pharmacopeia Method” value under setting [2] is “Pass”; the “AET, United States Pharmacopeia Method” value under setting [3] was “Pass”; the “AET, United States Pharmacopeia Method” value under setting [4] is on record as “Pass”; the “AET, United States Pharmacopeia Method” value under setting [5] is reported as “Pass”. In addition, the “results of the antibacterial efficacy testing” value (all tested BAK concentrations (100, 80, 50, 25 ppm) except 0 ppm) is reported as “met the criteria”. In addition, where the note is “benzalkonium chloride concentration greater than 70 ppm”, the “antibacterial efficacy criteria "A", Chinese Pharmacopoeia, during long-term storage” value is recorded as “criteria requirements of antibacterial efficacy “A” were met”.
